In US20260297081A1, “COMPOUNDS AND METHODS OF TREATING CANCERS” (Cullgen Inc., priority 2023, published 2026):

Target: CDK4 (Homo sapiens, UniProt P11802+Q16531)
Assay: CDK4 percentage degradation in Calu-1 cells (Table 6)
Assay type: cell-based
Design: Cells that express cyclin D1-3 and CDK4/6 proteins were treated with heterobifunctional compounds; endogenous in cells; host or cells: Calu-1
Conditions: 16 hours; for inhibition at 0.04 µM: 40 nM; for inhibition at 0.2 µM: 200 nM
Experimental: Calu-(cells were treated with heterobifunctional compounds at 40 nM or 200 nM for 16 hours A: protein percentage degradation […]; B: protein percentage degradation <80%, and ≥50%; C: protein percentage degradation <50%, and ≥30%; D; protein percentage degradation […]; -, data not available.
Calu-1, T47D, MCF7, HCC1428 and other cells were cultured at 37° C. with 5% CO2 in RPMI 1640 or DMEM medium supplemented with 10% fetal bovine serum. Cells were authenticated using the short tandem repeat (STR) assays. Mycoplasma test results were negative. For palbo-resistant cell model, T47D cells were cultured long-term to resistance in the presence of 1 μM Palbociclib. Cells were deemed resistant when growing in the presence of Palbo at the same rate as parental cells.
Cultured cells were washed with cold PBS once and lysed in cold RIPA buffer supplemented with protease inhibitors and phosphatase inhibitors (Beyotime Biotechnology). The solutions were then incubated at 4 ? for 30 min with gentle agitation to fully lysed cells. Cell lysates were centrifuged at 13,000 rpm for 10 min at 4 ? and pellets were discarded. Total protein concentrations in the lysates were determined following BCA assays (Beyotime Biotechnology). Cell lysates were mixed with Laemmli loading buffer and heated at 99° C. for 5 min. Proteins were resolved on SDS-PAGE and visualized using Western ECL Substrate kits on a ChemiDoc MP Imaging system (Bio-Rad). Protein bands were quantitated using the Image Lab software provided by Bio-Rad.

Chain of CDK4 (P11802 2-303 limits assumed): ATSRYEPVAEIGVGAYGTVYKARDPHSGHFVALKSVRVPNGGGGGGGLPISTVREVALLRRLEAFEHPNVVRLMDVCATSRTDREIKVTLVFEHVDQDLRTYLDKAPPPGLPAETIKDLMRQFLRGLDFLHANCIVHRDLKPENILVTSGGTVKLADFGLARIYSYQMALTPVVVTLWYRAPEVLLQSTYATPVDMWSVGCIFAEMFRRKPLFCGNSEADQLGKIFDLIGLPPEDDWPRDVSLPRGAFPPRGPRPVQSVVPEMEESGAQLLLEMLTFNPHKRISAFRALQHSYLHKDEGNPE
Chain of CDK4 (P24385 whole entry partner): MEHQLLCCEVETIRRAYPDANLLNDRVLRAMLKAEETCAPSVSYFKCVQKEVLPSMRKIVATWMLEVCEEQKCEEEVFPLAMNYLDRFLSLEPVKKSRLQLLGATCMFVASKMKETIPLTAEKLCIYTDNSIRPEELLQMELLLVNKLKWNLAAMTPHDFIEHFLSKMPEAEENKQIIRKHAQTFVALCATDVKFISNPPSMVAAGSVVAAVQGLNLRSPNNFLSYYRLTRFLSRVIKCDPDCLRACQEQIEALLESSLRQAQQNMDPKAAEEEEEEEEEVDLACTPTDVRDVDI
Chain of CDK4 (Q16531 2-1140 limits assumed): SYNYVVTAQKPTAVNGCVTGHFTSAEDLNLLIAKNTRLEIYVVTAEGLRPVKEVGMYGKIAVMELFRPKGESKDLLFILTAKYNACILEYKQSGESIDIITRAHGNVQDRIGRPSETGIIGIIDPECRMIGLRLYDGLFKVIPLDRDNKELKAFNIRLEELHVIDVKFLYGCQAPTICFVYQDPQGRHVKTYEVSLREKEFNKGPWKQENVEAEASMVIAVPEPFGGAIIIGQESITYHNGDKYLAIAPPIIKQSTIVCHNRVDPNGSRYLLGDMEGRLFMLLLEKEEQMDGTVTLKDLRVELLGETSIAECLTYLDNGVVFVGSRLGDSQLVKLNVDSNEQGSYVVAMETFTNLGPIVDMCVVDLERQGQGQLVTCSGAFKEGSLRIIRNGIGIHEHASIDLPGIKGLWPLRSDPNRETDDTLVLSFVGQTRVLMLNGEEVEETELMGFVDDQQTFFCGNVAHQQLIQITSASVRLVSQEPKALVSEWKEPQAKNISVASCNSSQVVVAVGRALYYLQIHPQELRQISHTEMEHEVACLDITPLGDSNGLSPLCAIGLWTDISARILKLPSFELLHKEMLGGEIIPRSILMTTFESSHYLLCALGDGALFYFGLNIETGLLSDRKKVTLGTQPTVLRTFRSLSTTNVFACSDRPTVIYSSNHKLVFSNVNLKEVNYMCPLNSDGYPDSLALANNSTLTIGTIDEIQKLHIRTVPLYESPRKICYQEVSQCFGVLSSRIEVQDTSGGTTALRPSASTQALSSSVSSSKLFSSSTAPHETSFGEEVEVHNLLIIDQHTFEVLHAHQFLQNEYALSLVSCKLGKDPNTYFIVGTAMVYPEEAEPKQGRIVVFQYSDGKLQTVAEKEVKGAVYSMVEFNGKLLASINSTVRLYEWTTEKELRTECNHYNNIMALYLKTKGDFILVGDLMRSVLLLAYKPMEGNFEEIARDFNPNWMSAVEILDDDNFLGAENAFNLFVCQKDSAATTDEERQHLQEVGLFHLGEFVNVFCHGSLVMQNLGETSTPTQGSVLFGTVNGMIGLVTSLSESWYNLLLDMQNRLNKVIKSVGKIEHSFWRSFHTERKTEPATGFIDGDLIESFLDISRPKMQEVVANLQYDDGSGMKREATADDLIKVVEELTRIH

| inhibition at 0.04 µM [%] | inhibition at 0.2 µM [%] | Structure (SMILES) |
| --- | --- | --- |
| 50 to 80 | 50 to 80 | CNc1ccc(C(=O)Nc2ccn(C)n2)c(NCCCCCNC(=O)CN2CCN(c3ccc(Nc4ncc5c(C)c(C(C)=O)c(=O)n(C6CCCC6)c5n4)nc3)CC2)n1 [CPD-49, 2-((5-(2-(4-(6-((6-Acetyl-8-cyclopentyl-5-methyl-7-oxo-7,8-dihydropyrido[2,3-d]pyrimidin-2-yl)amino)pyridin-3-yl)piperazin-1-yl)acetamido)pentyl)amino)-N-(1-methyl-1H-pyrazol-3-yl)-6-(methylamino)nicotinamide] |
| 50 to 80 | 50 to 80 | CNc1ccc(C(=O)Nc2cc(C)cc(C3CC3)n2)c(NCCCCCNC(=O)CN2CCN(c3ccc(Nc4ncc5c(C)c(C(C)=O)c(=O)n(C6CCCC6)c5n4)nc3)CC2)n1 [CPD-53, 2-((5-(2-(4-(6-((6-Acetyl-8-cyclopentyl-5-methyl-7-oxo-7,8-dihydropyrido[2,3-d]pyrimidin-2-yl)amino)pyridin-3-yl)piperazin-1-yl)acetamido)pentyl)amino)-N-(6-cyclopropyl-4-methylpyridin-2-yl)-6-(methylamino)nicotinamide] |
| 30 to 50 | 50 to 80 | CNc1ccc(C(=O)Nc2ccc(N(C)C)nc2)c(NCCCCCNC(=O)CN2CCN(c3ccc(Nc4ncc5c(C)c(C(C)=O)c(=O)n(C6CCCC6)c5n4)nc3)CC2)n1 [CPD-58, 2-((5-(2-(4-(6-((6-Acetyl-8-cyclopentyl-5-methyl-7-oxo-7,8-dihydropyrido[2,3-d]pyrimidin-2-yl)amino)pyridin-3-yl)piperazin-1-yl)acetamido)pentyl)amino)-N-(6-(dimethylamino)pyridin-3-yl)-6-(methylamino)nicotinamide] |

Continued, molecule first:

| Structure (SMILES) | inhibition at 0.04 µM [%] | inhibition at 0.2 µM [%] |
| --- | --- | --- |
| CNc1ccc(C(=O)NC2CCC(N(C)C)C2)c(NCCCCCNC(=O)CN2CCN(c3ccc(Nc4ncc5c(C)c(C(C)=O)c(=O)n(C6CCCC6)c5n4)nc3)CC2)n1 (centres unmarked) [CPD-55, 2-((5-(2-(4-(6-((6-Acetyl-8-cyclopentyl-5-methyl-7-oxo-7,8-dihydropyrido[2,3-d]pyrimidin-2-yl)amino)pyridin-3-yl)piperazin-1-yl)acetamido)pentyl)amino)-N-(3-(dimethylamino)cyclopentyl)-6-(methylamino)nicotinamide] | < 30 | < 30 |
| CNc1ccc(C(=O)Nc2nc(C3CC3)c(C)s2)c(NCCCCCNC(=O)CN2CCN(c3ccc(Nc4ncc5c(C)c(C(C)=O)c(=O)n(C6CCCC6)c5n4)nc3)CC2)n1 [CPD-56, 2-((5-(2-(4-(6-((6-Acetyl-8-cyclopentyl-5-methyl-7-oxo-7,8-dihydropyrido[2,3-d]pyrimidin-2-yl)amino)pyridin-3-yl)piperazin-1-yl)acetamido)pentyl)amino)-N-(4-cyclopropyl-5-methylthiazol-2-yl)-6-(methylamino)nicotinamide] | 50 to 80 | 50 to 80 |
| CC(=O)c1c(C)c2cnc(Nc3ccc(N4CCN(CC(=O)NCCCCCNc5nc(NC6CCC6)ccc5C(=O)Nc5ccc(N(C)C)nn5)CC4)cn3)nc2n(C2CCCC2)c1=O [CPD-59, 2-((5-(2-(4-(6-((6-Acetyl-8-cyclopentyl-5-methyl-7-oxo-7,8-dihydropyrido[2,3-d]pyrimidin-2-yl)amino)pyridin-3-yl)piperazin-1-yl)acetamido)pentyl)amino)-6-(cyclobutylamino)-N-(6-(dimethylamino)pyridazin-3-yl)nicotinamide] | 50 to 80 | 50 to 80 |
| CC(=O)c1c(C)c2cnc(Nc3ccc(N4CCN(CC(=O)NC(C)CCCCNc5nc(C6CC6)ccc5C(=O)Nc5ccc(C)c(C6CC6)n5)CC4)cn3)nc2n(C2CCCC2)c1=O (centres unmarked) [CPD-60, 2-((5-(2-(4-(6-((6-Acetyl-8-cyclopentyl-5-methyl-7-oxo-7,8-dihydropyrido[2,3-d]pyrimidin-2-yl)amino)pyridin-3-yl)piperazin-1-yl)acetamido)hexyl)amino)-6-cyclopropyl-N-(6-cyclopropyl-5-methylpyridin-2-yl)nicotinamide] | 50 to 80 | 50 to 80 |
